Measurements from patent publication US20150352108A1, “AMINO-PYRIMIDINE COMPOUNDS AS INHIBITORS OF TBK1 AND/OR IKK EPSILON” (Alzheimer's Institute of America, priority 2009, published 2015).
Read-outs that look alike come from different tables or passages of the source.

Key:
[1] = biological target: T1, IKKε (Homo sapiens, UniProt Q14164); experiment: In-vitro IKKε kinase assay ([γ33]ATP filter-plate); type: biochemical
T1 construct: His-tag; made in house; host or cells: Sf9 insect cells
T1 sequence (Q14164 1-716): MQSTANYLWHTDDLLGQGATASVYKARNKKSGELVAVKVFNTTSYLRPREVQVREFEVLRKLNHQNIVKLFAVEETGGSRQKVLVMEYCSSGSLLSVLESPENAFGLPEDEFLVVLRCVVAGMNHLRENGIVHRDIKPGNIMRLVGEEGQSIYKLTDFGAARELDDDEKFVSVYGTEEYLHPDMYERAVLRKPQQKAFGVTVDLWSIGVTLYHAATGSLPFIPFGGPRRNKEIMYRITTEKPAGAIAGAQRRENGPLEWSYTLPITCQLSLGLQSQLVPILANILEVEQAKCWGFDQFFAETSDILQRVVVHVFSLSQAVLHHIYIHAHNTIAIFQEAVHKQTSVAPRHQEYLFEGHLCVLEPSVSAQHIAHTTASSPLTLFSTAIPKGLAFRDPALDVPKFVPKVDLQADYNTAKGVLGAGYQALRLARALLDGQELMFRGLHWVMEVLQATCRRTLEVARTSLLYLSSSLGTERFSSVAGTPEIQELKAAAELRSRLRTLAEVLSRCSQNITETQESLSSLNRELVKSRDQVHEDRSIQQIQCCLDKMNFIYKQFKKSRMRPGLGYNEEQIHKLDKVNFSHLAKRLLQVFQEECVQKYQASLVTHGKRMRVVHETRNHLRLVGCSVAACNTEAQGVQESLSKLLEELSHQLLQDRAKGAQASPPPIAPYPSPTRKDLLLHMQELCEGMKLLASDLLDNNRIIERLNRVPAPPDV
In short: (§1)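 His-tagged Sf9-expressed kinases at 0.1 or 0.02 μg/ml (TBK1) and 0.1 or 0.015 μg/ml (IKKε) for normal and sensitized formats, with myelin basic protein or casein substrate. ATP was at 2×Km (60 μM TBK1, 32 μM IKKε) plus 0.3 μCi [γ33]ATP. Reactions ran 30-45 min, were captured on P-81 filters, and counts were normalized to DMSO.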

[2] = biological target: T2, TBK1 (Homo sapiens, UniProt Q9UHD2); experiment: In-vitro TBK1 kinase assay ([γ33]ATP filter-plate); type: biochemical
T2 construct: His-tag; made in house; host or cells: Sf9 insect cells
T2 sequence (Q9UHD2 1-729): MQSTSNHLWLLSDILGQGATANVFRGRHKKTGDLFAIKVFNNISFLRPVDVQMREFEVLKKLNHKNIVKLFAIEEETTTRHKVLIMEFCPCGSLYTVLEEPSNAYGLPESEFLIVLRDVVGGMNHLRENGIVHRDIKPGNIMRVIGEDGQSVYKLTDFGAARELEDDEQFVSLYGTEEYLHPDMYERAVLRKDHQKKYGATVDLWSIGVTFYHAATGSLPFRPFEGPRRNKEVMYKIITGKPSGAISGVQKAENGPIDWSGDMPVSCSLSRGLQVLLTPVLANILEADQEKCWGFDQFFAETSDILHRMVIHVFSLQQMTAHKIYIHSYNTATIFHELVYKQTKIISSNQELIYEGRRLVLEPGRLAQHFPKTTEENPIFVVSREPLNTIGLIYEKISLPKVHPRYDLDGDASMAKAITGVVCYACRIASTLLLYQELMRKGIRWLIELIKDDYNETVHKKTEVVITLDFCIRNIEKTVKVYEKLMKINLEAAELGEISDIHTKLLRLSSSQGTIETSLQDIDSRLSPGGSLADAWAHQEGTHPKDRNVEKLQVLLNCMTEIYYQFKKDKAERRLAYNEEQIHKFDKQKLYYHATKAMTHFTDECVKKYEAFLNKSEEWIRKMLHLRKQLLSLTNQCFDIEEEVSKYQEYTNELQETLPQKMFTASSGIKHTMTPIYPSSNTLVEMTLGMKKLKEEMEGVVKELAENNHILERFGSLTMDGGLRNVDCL
In short: as §1

[3] = text bins, read-out: IC50 for inhibition of the kinase activity of IKKε
[4] = text bins, read-out: IC50 for inhibition of the kinase activity of TBK1

Q: Which results are given for CC(C)C(=O)Nc1ccc(-c2ccnc(Nc3ccc(N4CCN(CCO)CC4)cc3)n2)cc1C#N [compound 427, N-{2-cyano-4-[2-({4-[4-(2-hydroxyethyl)piperazin-1-yl]phenyl}amino)pyrimidin-4-yl]phenyl}-2-methylpropanamide]?
A: IC50 [1, 3]: 5 to 50 nM; IC50 [2, 4]: < 10 nM

Q: Which IC50 [1, 3] does the source give for COc1cc(Nc2nccc(-c3ccc(OC4CCNCC4)c(C#N)c3)n2)ccc1N1CCOCC1 [Example 186, 5-(2-{[3-methoxy-4-(morpholin-4-yl)phenyl]amino}pyrimidin-4-yl)-2-(piperidin-4-yloxy)benzonitrile] here?
A: Its IC50 is 5 to 50 nM.

Q: What about the IC50 [2, 4] of the same compound?
A: Its IC50 is 10 to 100 nM.

Q: With CNc1ccc(-c2ccnc(Nc3ccc(OC)c(OC)c3)n2)cc1C#N [Example 107, 5-{2-[(3,4-Dimethoxyphenyl)amino]pyrimidin-4-yl}-2-(methylamino) benzonitrile] as the compound, how does the IC50 [1, 3] read?
A: Its IC50 is under 5 nM.

Q: What about the IC50 [2, 4] of the same compound?
A: Its IC50 is under 10 nM.

Q: How did the IC50 [1, 3] turn out when COc1ccc(-c2ccnc(Nc3ccc(S(=O)(=O)NCCN)c(OC)c3)n2)cc1C#N [compound 366, N-(2-Aminoethyl)-4-{[4-(3-cyano-4-methoxyphenyl)pyrimidin-2-yl]amino}-2-methoxybenzene-sulfonamide] was run?
A: Its IC50 is 5 to 50 nM.

Q: And the IC50 [2, 4]?
A: The IC50 was 10 to 100 nM.

Q: What does the source list for COC1CN(Cc2ccc(Nc3nccc(-c4ccc(NC(=O)C5CC5)c(C#N)c4)n3)cc2)C1 [compound 634, N-{2-Cyano-4-[2-({4-[(3-methoxyazetidin-1-yl)methyl]phenyl}amino)pyrimidin-4-yl]phenyl} cyclopropane-carboxamide]?
A: IC50 [1, 3]: 5 to 50 nM; IC50 [2, 4]: 10 to 100 nM

Q: Which results are given for COc1ccc(Nc2nccc(-c3ccc(NC(=O)C(C)C)c(C#N)c3)n2)cc1OCCCN1CCOCC1 [compound 433, N-{2-cyano-4-[2-({4-methoxy-3-[3-(morpholin-4-yl)propoxy]phenyl}amino)pyrimidin-4-yl]phenyl}-2-methylpropanamide]?
A: IC50 [1, 3]: 5 to 50 nM; IC50 [2, 4]: < 10 nM

Q: What does the source list for N#Cc1cc(-c2ccnc(Nc3ccc(N4CCOCC4)cc3)n2)ccc1OCC1CCOCC1 [Example 158, 5-(2-{[4-(morpholin-4-yl)phenyl]amino}pyrimidin-4-yl)-2-(tetrahydro-2H-pyran-4-ylmethoxy) benzonitrile]?
A: IC50 [1, 3]: < 5 nM; IC50 [2, 4]: < 10 nM

Q: How did the IC50 [1, 3] turn out when N#Cc1cc(-c2ccnc(Nc3ccc(N4CCOCC4)cc3)n2)ccc1OCC[C@H]1CCCCN1C(=O)CO [compound 448, 2-{2-[(2R)-1-(hydroxyacetyl)piperidin-2-yl]ethoxy}-5-(2-{[4-(morpholin-4-yl)phenyl]amino}pyrimidin-4-yl)benzonitrile] was run?
A: Its IC50 is 50 to 500 nM.

Q: And the IC50 [2, 4]?
A: Its IC50 is 10 to 100 nM.

Q: N#Cc1cc(-c2ccnc(Nc3ccc(N4CCOCC4)cc3)n2)ccc1OC1CCN(C(=O)CN)CC1 [Example 268, 2-[(1-Glycylpiperidin-4-yl)oxy]-5-(2-{[4-(morpholin-4-yl)phenyl]amino}pyrimidin-4-yl)benzonitrile] was tested. Which IC50 [1, 3] did it give?
A: The IC50 was 5 to 50 nM.

Q: And the IC50 [2, 4]?
A: Its IC50 is under 10 nM.

Q: N#Cc1cc(-c2ccnc(Nc3ccc(N4CCOCC4)cc3)n2)ccc1OC1CCN(S(N)(=O)=O)CC1 [Example 80, 4-[2-cyano-4-(2-{[4-(morpholin-4-yl)phenyl]amino}pyrimidin-4-yl)phenoxy]piperidine-1-sulfonamide] was tested. Which IC50 ([1]; Table 3, read-out: IKKε IC50) did it give?
A: Its IC50 is 0.8 nM.

Q: And the IC50 [1, 3]?
A: The IC50 was under 5 nM.

Q: And the IC50 ([2]; Table 3, read-out: TBK1 IC50)?
A: The IC50 was 0.4 nM.

Q: And the IC50 [2, 4]?
A: Its IC50 is under 10 nM.

Q: How did the IC50 [1, 3] turn out when N#Cc1cc(-c2ccnc(Nc3ccc(N4CCOCC4)cc3)n2)ccc1OCCNC=O [Example 230, N-{2-[2-cyano-4-(2-{[4-(morpholin-4-yl)phenyl]amino}pyrimidin-4-yl)phenoxy]ethyl} formamide] was run?
A: The IC50 was 5 to 50 nM.

Q: What about the IC50 [2, 4] of the same compound?
A: The IC50 was under 10 nM.

Q: For CC1(C)CC1C(=O)Nc1ccc(-c2ccnc(Nc3ccc(N4CCOCC4)cc3)n2)cc1C#N (centres unmarked) [compound 554, N-[2-Cyano-4-(2-{[4-(morpholin-4-yl)phenyl]amino}pyrimidin-4-yl)phenyl]-2,2-dimethylcyclopropane-carboxamide], which IC50 [1, 3] is on record?
A: The IC50 was 5 to 50 nM.

Q: And the IC50 [2, 4]?
A: The IC50 was under 10 nM.

Q: With COc1cc(NC(=O)NC[C@@H](C)O)cc(Nc2nccc(-c3ccc(OC)c(C#N)c3)n2)c1 [compound 343, 1-(3-{[4-(3-Cyano-4-methoxyphenyl)pyrimidin-2-yl]amino}-5-methoxyphenyl)-3-[(2R)-2-hydroxypropyl]urea] as the compound, how does the IC50 [1, 3] read?
A: The IC50 was 5 to 50 nM.

Q: What about the IC50 [2, 4] of the same compound?
A: The IC50 was under 10 nM.

Q: COc1ccc(Nc2nc(-c3ccc(OC4CCOCC4)c(C#N)c3)c3nc[nH]c3n2)cc1OC [compound 532, 5-{2-[(3,4-Dimethoxyphenyl)amino]-3H-purin-6-yl}-2-(tetrahydro-2H-pyran-4-yloxy)benzonitrile] was tested. Which IC50 [1, 3] did it give?
A: The IC50 was 5 to 50 nM.

Q: What about the IC50 [2, 4] of the same compound?
A: Its IC50 is 10 to 100 nM.

Q: Which IC50 [1, 3] does the source give for COc1ccc(-c2ccnc(Nc3cc(CN(C)CC(=O)N(C)C)c(OC)c(OC)c3)n2)cc1C#N [Example 115, N~2~-(5-{[4-(3-Cyano-4-methoxyphenyl)pyrimidin-2-yl]amino}-2,3-dimethoxybenzyl)-N,N,N~2~- trimethylglycinamide] here?
A: The IC50 was under 5 nM.

Q: And the IC50 [2, 4]?
A: Its IC50 is 10 to 100 nM.

Q: What does the source list for CC(C)C(=O)Nc1ccc(-c2ccnc(Nc3ccc(CC(=O)NCCCN4CCOCC4)cc3)n2)cc1C#N [compound 420, N-[2-cyano-4-(2-{[4-(2-{[3-(morpholin-4-yl)propyl]amino}-2-oxoethyl)phenyl]amino}pyrimidin-4-yl)phenyl]-2-methylpropanamide]?
A: IC50 [1, 3]: 5 to 50 nM; IC50 [2, 4]: 10 to 100 nM

Q: How did the IC50 [1, 3] turn out when N#Cc1cc(-c2ccnc(Nc3cccc(CNCCN4CCOCC4)c3)n2)ccc1OC1CCOCC1 [compound 569, 5-(2-{[3-({[2-(Morpholin-4-yl)ethyl]amino}methyl)phenyl]amino}pyrimidin-4-yl)-2-(tetrahydro-2H-pyran-4-yloxy)benzonitrile] was run?
A: The IC50 was 5 to 50 nM.

Q: What about the IC50 [2, 4] of the same compound?
A: The IC50 was 10 to 100 nM.

Q: Which results are given for CC(=O)NCCCOc1ccc(-c2ccnc(Nc3ccc(N4CCOCC4)cc3)n2)cc1C#N [Example 149, N-{3-[2-cyano-4-(2-{[4-(morpholin-4-yl)phenyl]amino}pyrimidin-4-yl)phenoxy]propyl} acetamide]?
A: IC50 [1, 3]: 5 to 50 nM; IC50 [2, 4]: 10 to 100 nM

Q: For N#Cc1cc(-c2ccnc(Nc3ccc(N4CCOCC4)cc3)n2)ccc1OCc1ccccc1 [Example 179, 2-(Benzyloxy)-5-(2-{[4-(morpholin-4-yl)phenyl]amino}pyrimidin-4-yl)benzonitrile], which IC50 [1, 3] is on record?
A: The IC50 was 5 to 50 nM.

Q: What about the IC50 [2, 4] of the same compound?
A: The IC50 was 10 to 100 nM.

Q: N#Cc1cc(-c2ccnc(Nc3cccc(CC(=O)NCCCN4CCOCC4)c3)n2)ccc1OC1CCOCC1 [compound 407, 2-[3-({4-[3-Cyano-4-(tetrahydro-2H-pyran-4-yloxy)phenyl]pyrimidin-2-yl}amino)phenyl]-N-[3-(morpholin-4-yl)propyl]acetamide] was tested. Which IC50 [1, 3] did it give?
A: Its IC50 is 5 to 50 nM.

Q: And the IC50 [2, 4]?
A: The IC50 was under 10 nM.

Q: Which results are given for N#Cc1cc(-c2ccnc(Nc3ccc4ncsc4c3)n2)ccc1OC1CCOCC1 [Example 16, 5-[2-(1,3-benzothiazol-6-ylamino)pyrimidin-4-yl]-2-(tetrahydro-2H-pyran-4-yloxy)benzonitrile]?
A: IC50 [1, 3]: < 5 nM; IC50 [2, 4]: < 10 nM

Q: For N#Cc1cc(-c2ccnc(Nc3ccc(N4CCOCC4)cc3)n2)ccc1OCCN [Example 220, 2-(2-aminoethoxy)-5-(2-{[4-(morpholin-4-yl)phenyl]amino}pyrimidin-4-yl)benzonitrile], which IC50 [1, 3] is on record?
A: The IC50 was 5 to 50 nM.

Q: What about the IC50 [2, 4] of the same compound?
A: The IC50 was under 10 nM.

Q: What does the source list for CN(C)C(=O)CN(C)c1ccc(Nc2nccc(-c3ccc(OC4CCOCC4)c(C#N)c3)n2)cc1 [Example 82, N~2~-[4-({4-[3-cyano-4-(tetrahydro-2H-pyran-4-yloxy)phenyl]pyrimidin-2-yl}amino)phenyl]-N,N,N~2~- trimethylglycinamide]?
A: IC50 [1, 3]: < 5 nM; IC50 [2, 4]: < 10 nM

Q: CN1CCN(c2ccc(Nc3nccc(-c4ccc(OC5CCNC5)c(C#N)c4)n3)cc2)CC1 (centres unmarked) [Example 90, 5-(2-{[4-(4-methylpiperazin-1-yl)phenyl]amino}pyrimidin-4-yl)-2-(pyrrolidin-3-yloxy)benzonitrile] was tested. Which IC50 [1, 3] did it give?
A: The IC50 was 5 to 50 nM.

Q: What about the IC50 [2, 4] of the same compound?
A: Its IC50 is 10 to 100 nM.
